Reference: US10987359B2, “Oxadiazepinone derivatives and methods of treating hepatitis B infections” (priority 2016, dated 2021)

Tested on: HBV
Test: HBV replication inhibition assay (BDNA assay) in HepG2.2.15 cells
Assay type: cell-based
Conditions: HBV replication assay (BDNA assay), HepG2.2.15 cells; read-out: DNA EC50
Outline: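 Supernatant encapsidated HBV DNA was measured by bDNA after DNase digestion and proteinase K release. Stably HBV-integrated HepG2.2.15 cells had two 3-day compound exposures (0.5% DMSO). Signals were background-subtracted and normalized to DMSO wells, and EC50 was obtained by four-parameter fit.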

For `C[C@@H]1Cc2nn3c(c2CN1C(=O)Nc1ccc(F)c(C#N)c1)C(=O)N(C)OC(CNS(C)(=O)=O)C3` (single isomer, unassigned) [Compound 178_D1, (4S*,9R)—N-(3-cyano-4-fluorophenyl)-2,9-dimethyl-4-(methylsulfonamidomethyl)-1-oxo-1,4,5,8,9,11-hexahydropyrido[4′,3′:3,4]pyrazolo[5,1-d][1,2,5]oxadiazepine-10(2H)-carboxamide], which EC50 is on record?
The EC50 was 100 to 500 nM.

For `C[C@@H]1Cc2nn3c(c2CN1C(=O)Nc1ccc(F)c(C#N)c1)C(=O)N(C)OC(CNS(C)(=O)=O)C3` (single isomer, unassigned) [Compound 178_D2, (4R*,9R)—N-(3-cyano-4-fluorophenyl)-2,9-dimethyl-4-(methylsulfonamidomethyl)-1-oxo-1,4,5,8,9,11-hexahydropyrido[4′,3′:3,4]pyrazolo[5,1-d][1,2,5]oxadiazepine-10(2H)-carboxamide], which EC50 is on record?
Its EC50 is 1 to 100 nM.

With `C[C@@H]1Cc2nn3c(c2CN1C(=O)Nc1ccc(F)c(C(F)(F)F)c1)C(=O)N(C)OC(CNS(C)(=O)=O)C3` (single isomer, unassigned) [Compound 179_D2, (4R*,9R)—N-(4-fluoro-3-(trifluoromethyl)phenyl)-2,9-dimethyl-4-(methylsulfonamidomethyl)-1-oxo-1,4,5,8,9,11-hexahydropyrido[4′,3′:3,4]pyrazolo[5,1-d][1,2,5]oxadiazepine-10(2H)-carboxamide] as the molecule, how does the EC50 read?
Its EC50 is 1 to 100 nM.

`COC(=O)NCC1Cn2nc3c(c2C(=O)N(C)O1)CN(C(=O)Nc1ccc(F)c(C#N)c1)[C@H](C)C3` (single isomer, unassigned) [Compound 180_D2, methyl (((4R*,9R)-10-((3-cyano-4-fluorophenyl)carbamoyl)-2,9-dimethyl-1-oxo-1,2,4,5,8,9,10,11-octahydropyrido[4′,3′:3,4]pyrazolo[5,1-d][1,2,5]oxadiazepin-4-yl)methyl)carbamate] was tested. Which EC50 did it give?
Its EC50 is 1 to 100 nM.

How did the EC50 turn out when `COC(=O)NCC1Cn2nc3c(c2C(=O)N(C)O1)CN(C(=O)Nc1ccc(F)c(C(F)(F)F)c1)[C@H](C)C3` (single isomer, unassigned) [Compound 181_D2, methyl (((4R*,9R)-10-((4-fluoro-3-(trifluoromethyl)phenyl)carbamoyl)-2,9-dimethyl-1-oxo-1,2,4,5,8,9,10,11-octahydropyrido[4′,3′:3,4]pyrazolo[5,1-d][1,2,5]oxadiazepin-4-yl)methyl)carbamate] was run?
Its EC50 is 1 to 100 nM.

How did the EC50 turn out when `C[C@@H]1Cc2nn3c(c2CN1C(=O)Nc1ccc(F)c(C(F)(F)F)c1)C(=O)N(C)OC(CNCC(F)F)C3` (single isomer, unassigned) [Compound 182_D2, (4R*,9R)-4-(((2,2-difluoroethyl)amino)methyl)-N-(4-fluoro-3-(trifluoromethyl)phenyl)-2,9-dimethyl-1-oxo-1,4,5,8,9,11-hexahydropyrido[4′,3′:3,4]pyrazolo[5,1-d][1,2,5]oxadiazepine-10(2H)-carboxamide] was run?
The EC50 was 1 to 100 nM.

Same assay, conditions: Hepatitis B virus, HepG2.2.15, HBV replication assay (BDNA assay), HepG2.2.15 cells; read-out: DNA EC50

How did the EC50 turn out when `C[C@@H]1Cc2nn3c(c2CN1C(=O)Nc1ccc(F)c(C(F)(F)F)c1)C(=O)N(C)OC(CNS(C)(=O)=O)C3` (single isomer, unassigned) [Compound 179_D1, (4 S*,9R)—N-(4-fluoro-3-(trifluoromethyl)phenyl)-2,9-dimethyl-4-(methylsulfonamidomethyl)-1-oxo-1,4,5,8,9,11-hexahydropyrido[4′,3′:3,4]pyrazolo[5,1-d][1,2,5]oxadiazepine-10(2H)-carboxamide] was run?
Its EC50 is 1 to 100 nM.

Which EC50 does the source give for `COC(=O)NCC1Cn2nc3c(c2C(=O)N(C)O1)CN(C(=O)Nc1ccc(F)c(C#N)c1)[C@H](C)C3` (single isomer, unassigned) [Compound 180_D1, methyl (((4S*,9R)-10-((3-cyano-4-fluorophenyl)carbamoyl)-2,9-dimethyl-1-oxo-1,2,4,5,8,9,10,11-octahydropyrido[4′,3′:3,4]pyrazolo[5,1-d][1,2,5]oxadiazepin-4-yl)methyl)carbamate] here?
The EC50 was 1 to 100 nM.

For `COC(=O)NCC1Cn2nc3c(c2C(=O)N(C)O1)CN(C(=O)Nc1ccc(F)c(C(F)(F)F)c1)[C@H](C)C3` (single isomer, unassigned) [Compound 181_D1, methyl(((4S*,9R)-10-((4-fluoro-3-(trifluoromethyl)phenyl)carbamoyl)-2,9-dimethyl-1-oxo-1,2,4,5,8,9,10,11-octahydropyrido[4′,3′:3,4]pyrazolo[5,1-d][1,2,5]oxadiazepin-4-yl)methyl)carbamate], which EC50 is on record?
Its EC50 is 1 to 100 nM.

With `C[C@@H]1Cc2nn3c(c2CN1C(=O)Nc1ccc(F)c(C(F)(F)F)c1)C(=O)N(C)OC(CNCC(F)F)C3` (single isomer, unassigned) [Compound 182_D1, (4S*,9R)-4-(((2,2-difluoroethyl)amino)methyl)-N-(4-fluoro-3-(trifluoromethyl)phenyl)-2,9-dimethyl-1-oxo-1,4,5,8,9,11-hexahydropyrido[4′,3′:3,4]pyrazolo[5,1-d][1,2,5]oxadiazepine-10(2H)-carboxamide] as the molecule, how does the EC50 read?
The EC50 was 1 to 100 nM.

Which EC50 does the source give for `CN1OC(CNCC(F)F)Cn2nc3c(c2C1=O)CN(C(=O)Nc1ccc(F)c(C#N)c1F)CC3` (single isomer, unassigned) [Compound 186_E1, (S*)—N-(3-cyano-2,4-difluorophenyl)-4-(((2,2-difluoroethyl)amino)methyl)-2-methyl-1-oxo-1,4,5,8,9,11-hexahydropyrido[4′,3′:3,4]pyrazolo[5,1-d][1,2,5]oxadiazepine-10(2H)-carboxamide] here?
Its EC50 is 1 to 100 nM.

Which EC50 does the source give for `CN1OC(CNCC(F)F)Cn2nc3c(c2C1=O)CN(C(=O)Nc1ccc(F)c(C#N)c1)CC3` (single isomer, unassigned) [Compound 187_E1, (S*)—N-(3-cyano-4-fluorophenyl)-4-(((2,2-difluoroethyl)amino)methyl)-2-methyl-1-oxo-1,4,5,8,9,11-hexahydropyrido[4′,3′:3,4]pyrazolo[5,1-d][1,2,5]oxadiazepine-10(2H)-carboxamide] here?
The EC50 was 1 to 100 nM.

Which EC50 does the source give for `CN1OC(CNCC(F)F)Cn2nc3c(c2C1=O)CN(C(=O)Nc1ccc(F)c(Cl)c1F)CC3` (single isomer, unassigned) [Compound 188_E1, (S*)—N-(3-chloro-2,4-difluorophenyl)-4-(((2,2-difluoroethyl)amino)methyl)-2-methyl-1-oxo-1,4,5,8,9,11-hexahydropyrido[4′,3′:3,4]pyrazolo[5,1-d][1,2,5]oxadiazepine-10(2H)-carboxamide] here?
Its EC50 is 1 to 100 nM.

How did the EC50 turn out when `CN1OC(CNCC(F)F)Cn2nc3c(c2C1=O)CN(C(=O)Nc1ccc(F)c(Br)c1F)CC3` (single isomer, unassigned) [Compound 189_E1, (S*)—N-(3-bromo-2,4-difluorophenyl)-4-(((2,2-difluoroethyl)amino)methyl)-2-methyl-1-oxo-1,4,5,8,9,11-hexahydropyrido[4′,3′:3,4]pyrazolo[5,1-d][1,2,5]oxadiazepine-10(2H)-carboxamide] was run?
Its EC50 is 1 to 100 nM.

For `CN1OC(CNCC(F)F)Cn2nc3c(c2C1=O)CN(C(=O)Nc1ccc(F)c(Br)c1)CC3` (single isomer, unassigned) [Compound 190_E1, (S*)—N-(3-bromo-4-fluorophenyl)-4-(((2,2-difluoroethyl)amino)methyl)-2-methyl-1-oxo-1,4,5,8,9,11-hexahydropyrido[4′,3′:3,4]pyrazolo[5,1-d][1,2,5]oxadiazepine-10(2H)-carboxamide], which EC50 is on record?
The EC50 was 1 to 100 nM.
